Measured values as given in US6689922B1, “Vitamin D analogues” (Galderma Research & Development S.N.C., priority 1998, dated 2004).

Molecular target: T1, vitamin D receptors (Mus musculus, UniProt P48281)
T1 construct: the skin treated is removed and the epidermis is separated from the dermis; from tissue; host or cells: epidermis of SKH mice (in vivo, topical application)
T1 sequence (P48281 1-422): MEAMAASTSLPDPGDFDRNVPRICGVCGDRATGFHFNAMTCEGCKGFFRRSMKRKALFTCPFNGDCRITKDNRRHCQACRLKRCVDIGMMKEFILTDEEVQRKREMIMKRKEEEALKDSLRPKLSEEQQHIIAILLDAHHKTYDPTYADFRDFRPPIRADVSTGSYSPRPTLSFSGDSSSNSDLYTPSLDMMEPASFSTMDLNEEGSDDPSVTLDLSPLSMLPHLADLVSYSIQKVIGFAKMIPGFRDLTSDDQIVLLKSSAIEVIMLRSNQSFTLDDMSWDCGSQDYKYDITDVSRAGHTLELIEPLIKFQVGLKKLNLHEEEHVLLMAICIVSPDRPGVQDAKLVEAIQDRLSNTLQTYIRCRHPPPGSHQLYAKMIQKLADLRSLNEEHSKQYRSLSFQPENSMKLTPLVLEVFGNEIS
Assay: Induction of 24-Hydroxylase mRNA in the epidermis of SKH mice after a single topical application (semiquantitative PCR)
Format: in vivo
Conditions: for Expression of the mRNA for 24-Hydroxylase: Induction factor versus ethanol: single topical application of 50 μl to the back, epidermis 8 hours after application, normalized to GAPDH mRNA
Protocol: The test protocol used is the following:
SKH mice receive a single topical application of a compound according to the invention in solution in ethanol in increasing concentrations. A volume of 50 μl of the product to be tested or of the vehicle alone is applied to the back of the mice with the aid of a pipette.
A volume of 50 μl of the product to be tested or of the vehicle alone is applied to the back of the mice with the aid of a pipette.
8 hours after the topical application, the mice are humanely killed, the skin treated is removed and the epidermis is separated from the dermis. The quantification of the mRNA for 24-Hydroxylase is carried out by semiquantitative PCR.

[1] = concentration 1 % (weight/volume) in ethanol
[2] = concentration 0.1 % (weight/volume) in ethanol

Row | Compound | Expression of the mRNA for 24-Hydroxylase: Induction factor versus ethanol [1] | Expression of the mRNA for 24-Hydroxylase: Induction factor versus ethanol [2] | Activity (induction of 24-Hydroxylase mRNA) compared with 1,25-(OH)2-vitamin D3 (at the concentration of 1%, single topical application, SKH mice)
1 | CCC(O)(/C=C/C=C(\C)c1cccc(OCc2ccc(CO)c(CO)c2)c1)CC [Example 65, (4E,6E)-7-[3-(3,4-bis-Hydroxymethylbenzyloxy)phenyl]-3-ethylocta-4,6-dien-3-ol] | 15 |  | 
2 | CCC(O)(/C=C/C=C(\C)c1cccc(CCc2ccc(CO)c(CO)c2)c1)CC [Example 59, (4E,6E)-7-{3-[2-(3,4-bis-Hydroxymethylphenyl)ethyl]-phenyl}-3-ethylocta-4,6-dien-3-ol] |  | 20.5 | 
3 | CC(=CC=CC(C)(C)O)c1cccc(OCc2ccc(CO)c(CO)c2)c1 [Example 4, 6-[3-(3,4-bis-Hydroxymethylbenzyloxy)phenyl]-2-methylhepta-3,5-dien-2-ol] | 11 |  | comparable to that of 1,25-(OH)2-vitamin D3 at 0.001%
4 | CC/C(=C\C=C\C(O)(CC)CC)c1cccc(OCc2ccc(CO)c(CO)c2)c1 [Example 68, (4E,6E)-7-[3-(3,4-bis-Hydroxymethylbenzyloxy)phenyl]-3-ethylnona-4,6-dien-3-ol] |  | 25 | 
5 | CCC(O)(/C=C/C=C(\C)c1cccc(COc2ccc(CO)c(CO)c2)c1)CC [Example 82, (4E,6E)-7-[3-(3,4-bis-Hydroxymethylphenoxy-methyl)phenyl]-3-ethylocta-4,6-dien-3-ol] |  | 21 | 
6 | CCC(O)(/C=C/C=C(\C)c1cccc(C=Cc2ccc(CO)c(CO)c2)c1)CC [Example 61, (4E-6E)-7-{3-[2-(3,4-bis-Hydroxymethylphenyl}vinyl]-phenyl)-3-ethylocta-4,6-dien-3-ol] | 10 |  | 
7 | CCC(O)(CC)CC/C=C(\C)c1cccc(OCc2ccc(CO)c(CO)c2)c1 [Example 72, (E)-7-[3-(3,4-bis-Hydroxymethylbenzyloxy)phenyl]-3-ethyloct-6-en-3-ol] |  | 17 | 
